# In ChEMBL document CHEMBL5252520, “Inhibition of phospho-MurNAc-pentapeptide translocase (MraY) by nucleoside natural product antibiotics, bacteriophage ϕX174 lysis protein E, and cationic antibacterial peptides” (Bioorg Med Chem, 2016):
# Residues, ends and D or L forms follow the SMILES beside them.
# Columns and labels:
# [1] = Inhibition of bacterial MraY; design: species or system Bacteria
# Escherichia coli [2] = assay: Antibacterial activity against Escherichia coli assessed as inhibition of bacterial growth; type: functional
# Pseudomonas aeruginosa = assay: Antibacterial activity against Pseudomonas aeruginosa H103 assessed as reduction in bacterial growth; type: functional
# Escherichia coli [3] = assay: Antibacterial activity against Escherichia coli assessed as reduction in bacterial growth; type: functional
# [4] = Inhibition of Bacillus subtilis TagO
# [5] = biological target: T1, Phospho-N-acetylmuramoyl-pentapeptide-transferase (Bacillus subtilis (strain 168), UniProt Q03521); assay: Inhibition of Bacillus subtilis MraY
# T1 sequence (Q03521 whole entry): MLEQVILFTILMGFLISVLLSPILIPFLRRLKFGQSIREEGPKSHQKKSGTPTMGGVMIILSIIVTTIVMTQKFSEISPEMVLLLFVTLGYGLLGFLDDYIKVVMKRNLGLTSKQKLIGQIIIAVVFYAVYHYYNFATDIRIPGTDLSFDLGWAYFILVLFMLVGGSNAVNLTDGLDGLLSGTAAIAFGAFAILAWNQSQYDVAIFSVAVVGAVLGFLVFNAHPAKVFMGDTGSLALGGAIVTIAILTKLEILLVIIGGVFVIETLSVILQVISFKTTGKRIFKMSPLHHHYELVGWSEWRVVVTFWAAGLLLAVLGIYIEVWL
# [6] = biological target: T2, Phospho-N-acetylmuramoyl-pentapeptide-transferase (Escherichia coli, UniProt E2QF15); assay: Inhibition of recombinant Escherichia coli MraY by fluorescence based analysis
# T2 sequence (E2QF15 whole entry): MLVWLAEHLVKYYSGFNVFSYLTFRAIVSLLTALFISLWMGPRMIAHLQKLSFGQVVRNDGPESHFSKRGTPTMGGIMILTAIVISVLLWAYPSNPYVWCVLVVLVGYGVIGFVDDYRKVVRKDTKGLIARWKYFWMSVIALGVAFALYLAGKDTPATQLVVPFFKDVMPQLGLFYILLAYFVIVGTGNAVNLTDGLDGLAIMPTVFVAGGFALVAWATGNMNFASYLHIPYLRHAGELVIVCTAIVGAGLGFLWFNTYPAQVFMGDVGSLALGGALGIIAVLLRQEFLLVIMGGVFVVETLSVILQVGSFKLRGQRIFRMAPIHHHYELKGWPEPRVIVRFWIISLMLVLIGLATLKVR
Compound,IC50 [1],MIC (Pseudomonas aeruginosa),MIC (Escherichia coli [3]),also measured
CCCCCCCCOC(=O)[C@H](Cc1c[nH]c2ccccc12)NC(=O)CN,790 µM,–,–,–
CC[C@H](C)[C@H](N)C(=O)N[C@@H](CC(C)C)C(=O)N1CCC[C@H]1C(=O)N[C@@H](Cc1c[nH]c2ccccc12)C(=O)N[C@@H](CCCCN)C(=O)N[C@@H](Cc1c[nH]c2ccccc12)C(=O)N1CCC[C@H]1C(=O)N[C@@H](Cc1c[nH]c2ccccc12)C(=O)N[C@@H](Cc1c[nH]c2ccccc12)C(=O)N1CCC[C@H]1C(=O)N[C@@H](Cc1c[nH]c2ccccc12)C(=O)N[C@@H](CCCN=C(N)N)C(=O)N[C@@H](CCCN=C(N)N)C(N)=O,90 µM,–,–,–
CC[C@H](C)[C@H](NC(=O)[C@H](Cc1c[nH]c2ccccc12)NC(=O)[C@@H](NC(=O)[C@@H](NC(=O)[C@H](Cc1c[nH]c2ccccc12)NC(=O)[C@H](CCCNC(=N)N)NC(=O)[C@@H](N)CCCNC(=N)N)[C@@H](C)CC)C(C)C)C(=O)N[C@@H](CCCNC(=N)N)C(=O)O (H-RRWIVWIR-OH),–,8 µg/mL,–,MIC (Escherichia coli [2]): 2 µg/mL
CC(=O)N[C@@H](CCCNC(=N)N)C(=O)N[C@@H](CCCNC(=N)N)C(=O)N[C@@H](Cc1c[nH]c2ccccc12)C(=O)N[C@@H](Cc1c[nH]c2ccccc12)C(=O)N[C@@H](CS)C(=O)N[C@@H](Cc1ccccc1)C(=O)O (Ac-RRWWCF-OH),–,45 µg/mL,20 µg/mL,–
N=C(N)NCCC[C@H](N)C(=O)N[C@@H](Cc1c[nH]c2ccccc12)C(=O)NCC(=O)NCC(=O)N[C@@H](Cc1c[nH]c2ccccc12)C(=O)O (H-RWGGW-OH),233 µM,–,–,–
CC(C)C[C@H](NC(=O)[C@H](Cc1ccccc1)NC(=O)[C@@H]1CCCN1C(=O)[C@H](Cc1c[nH]c2ccccc12)NC(=O)[C@H](Cc1c[nH]c2ccccc12)NC(=O)[C@H](Cc1c[nH]c2ccccc12)NC(=O)[C@@H]1CCCN1C(=O)[C@H](Cc1ccccc1)NC(=O)[C@H](CCCNC(=N)N)NC(=O)[C@H](CCCNC(=N)N)NC(=O)[C@@H](N)C(C)C)C(=O)N[C@@H](CCCNC(=N)N)C(=O)N[C@@H](CCCNC(=N)N)C(=O)O,–,1 µg/mL,20 µg/mL,–
NC[C@H]1O[C@@H](O[C@@H](Cn2cc(CCCCCO)nn2)[C@H]2O[C@@H](n3ccc(=O)[nH]c3=O)[C@H](O)[C@@H]2O)[C@H](O)[C@@H]1O,–,–,–,IC50 [4]: 0.05 µg/mL
CC[C@H](C)[C@H](NC(=O)[C@H](CCCCN)NC(=O)[C@H](CCCCN)NC(=O)[C@H](Cc1ccccc1)NC(=O)[C@H](CC(C)C)NC(=O)[C@H](CCCCN)NC(=O)[C@H](Cc1c[nH]c2ccccc12)NC(=O)[C@@H](N)CCCCN)C(=O)N[C@@H](CCC(=O)O)C(=O)N[C@@H](CCCCN)C(=O)O (H-KWKLFKKIEK-OH),–,5 µg/mL,1 µg/mL,–
CC(C)C[C@H](NC(=O)CNC(=O)[C@H](Cc1c[nH]c2ccccc12)NC(=O)[C@@H](N)CCCNC(=N)N)C(=O)NCC(=O)O (H-RWGLG-OH),274 µM,–,–,–
CC[C@H](C)[C@H](N)C(=O)N[C@@H](CC(C)C)C(=O)N[C@@H](CCCNC(=N)N)C(=O)N[C@@H](Cc1c[nH]c2ccccc12)C(=O)N1CCC[C@H]1C(=O)N[C@@H](Cc1c[nH]c2ccccc12)C(=O)N[C@@H](Cc1c[nH]c2ccccc12)C(=O)N1CCC[C@H]1C(=O)N[C@@H](Cc1c[nH]c2ccccc12)C(=O)N[C@@H](CCCNC(=N)N)C(=O)N[C@@H](CCCNC(=N)N)C(=O)N[C@@H](CCCCN)C(=O)O (H-ILRWPWWPWRRK-OH),50 µM,19 µg/mL,38 µg/mL,–
CC(C)[C@H](NC(=O)[C@@H](NC(=O)[C@H](Cc1c[nH]c2ccccc12)NC(=O)[C@H](CCCNC(=N)N)NC(=O)[C@H](Cc1c[nH]c2ccccc12)NC(=O)[C@H](Cc1c[nH]c2ccccc12)NC(=O)[C@H](CCCCN)NC(=O)[C@H](Cc1c[nH]c2ccccc12)NC(=O)[C@H](Cc1c[nH]c2ccccc12)NC(=O)[C@H](CCCCN)NC(=O)CN)[C@@H](C)O)C(=O)N1CCC[C@H]1C(=O)N[C@@H](Cc1ccccc1)C(=O)O (H-GKWWKWWRWTVPF-OH),–,–,7 µg/mL,–
CO[C@@H]1[C@@H](OC)[C@H](C)O[C@@H](OC(=O)C[C@@H](C)CC(=O)O[C@@H](CCCCCCCCCCC(C)C)CC(=O)O[C@H]2CN(C)[C@@H]([C@H](O[C@@H]3O[C@H](CN)[C@@H](O)[C@H]3O)[C@H]3O[C@@H](n4ccc(=O)[nH]c4=O)[C@H](O)[C@@H]3O)C(=O)N(C)[C@@H]2C(=O)O)[C@@H]1OC,–,–,–,IC50 [5]: 100 µM
CC(C)[C@H](NC(=O)N[C@H](C(=O)N[C@H](C(=O)NCCCN[C@@H](C[C@H]1O[C@@H](n2ccc(=O)[nH]c2=O)[C@H](O)[C@@H]1O)C(=O)O)[C@@H](O)C(C)C)[C@@H]1CCNC(=N)N1)C(=O)O,–,–,–,IC50 [6]: 2 µM
CC(C)C[C@H](NC(=O)CNC(=O)CNC(=O)[C@@H](N)CCCNC(=N)N)C(=O)N[C@@H](Cc1c[nH]c2ccccc12)C(=O)O (H-RGGLW-OH),210 µM,–,–,–
CCCCCCCCOC(=O)[C@H](Cc1c[nH]c2ccccc12)NC(=O)[C@@H](N)CCCNC(=N)N,> 1000 µM,40 µg/mL,31 µg/mL,–
CSCC[C@H](NC(=O)[C@H](CCCNC(=N)N)NC(=O)[C@H](Cc1c[nH]c2ccccc12)NC(=O)[C@H](CCC(N)=O)NC(=O)[C@H](Cc1c[nH]c2ccccc12)NC(=O)[C@H](CCCNC(=N)N)NC(=O)[C@H](CCCNC(=N)N)NC(=O)[C@H](CS)NC(=O)[C@H](CCCCN)NC(=O)[C@@H](N)CCC(=O)O)C(=O)N[C@@H](CCCCN)C(=O)N[C@@H](CCCCN)C(=O)N[C@@H](CC(C)C)C(=O)NCC(=O)O (H-EKCRRWQWRMKKLG-OH),–,–,24 µg/mL,–
CC[C@H](C)[C@H](NC(=O)[C@H](CCCNC(=N)N)NC(=O)[C@H](Cc1c[nH]c2ccccc12)NC(=O)[C@@H](NC(=O)[C@@H](NC(=O)[C@H](CC(C)C)NC(=O)[C@H](Cc1c[nH]c2ccccc12)NC(=O)[C@H](CCCNC(=N)N)NC(=O)[C@H](CCC(N)=O)NC(=O)[C@@H](N)C(C)C)[C@@H](C)CC)C(C)C)C(=O)N[C@@H](CCCNC(=N)N)C(=O)N[C@@H](CCCCN)C(=O)O (H-VQRWLIVWRIRK-OH),75 µM,–,–,MIC (Escherichia coli [2]): 8 µg/mL
O=C(O)c1c(Cl)c(Cl)c(Cl)c(Cl)c1-c1c2cc(Br)c(=O)c(Br)c-2oc2c(Br)c(O)c(Br)cc12,32 µM,–,–,IC50 [5]: 850 µM
CSCC[C@H](N)C(=O)N[C@H](C(=O)N[C@@H](CCCNC(=N)N)C(=O)N[C@@H](Cc1c[nH]c2ccccc12)C(=O)N[C@H](C(=O)N[C@@H](CC(C)C)C(=O)N[C@@H](Cc1c[nH]c2ccccc12)C(=O)N[C@@H](CC(=O)O)C(=O)N[C@H](C(=O)N[C@@H](CC(C)C)C(=O)N[C@@H](C)C(=O)N[C@@H](Cc1ccccc1)C(=O)N[C@@H](CC(C)C)C(=O)N[C@@H](CC(C)C)C(=O)N[C@@H](CC(C)C)C(=O)O)[C@@H](C)O)[C@@H](C)O)C(C)C (H-MVRWTLWDTLAFLLL-OH),0.8 µM,–,–,–
CC(C)C[C@H](NC(=O)CNC(=O)[C@H](Cc1c[nH]c2ccccc12)NC(=O)CN)C(=O)N[C@@H](Cc1c[nH]c2ccccc12)C(=O)O (H-GWGLW-OH),209 µM,–,–,–
